{"source": "patent US6753005B1", "about": "“Method for tissue perfusion” (Direct Therapeutics, Inc., priority 1997, dated 2004)", "key": {"Walker 256 tumors": {"tested_on": "Walker 256 tumors", "conditions": "for Tumor Free at Time of Death: number of animals", "protocol": "Tumor fragments derived from serially transplanted Walker 256 tumors were prepared and transplanted subcutaneously into female Harlan Sprague Dawley rats. Once the tumors reached appropriate size, animals were randomized into treatment groups of 5 or 6 animals and an untreated control group of 10 animals. Tumor volume for each animal was calculated using the formula: volume=(I×w2)/2. Observations included daily visual observation of each animal's general health, tumor measurements three times per week and weight every week. These measurements continued until: efficacy was apparent, the animal was terminal, the tumor became necrotic, tumor interfered with the animal's ability to eat or drink, or ten weeks beyond commencement of dosing.\nFifty rats bearing tumors ranging from 550 to 1634 mm^3 were randomly divided into eight treatment groups and 2 control groups. The following treatments were respectively administered to the eight treatment groups: […]"}, "normal canine prostate": {"tested_on": "normal canine prostate", "test": "Normal canine prostate model, intraprostatic injection", "protocol": "Random-source adult male canines were used in this experiment.\nBody surface area (m2) was calculated for each animal using published tables.\nOn the day of surgery, the animals were preanesthetized with acepromazine (0.22 mg/kg) and atropine (0.05 mg/kg) intramuscularly. General anesthesia was induced with intravenous thiopental sodium (20-25 mg/kg) and, following orotracheal intubation, was maintained with a 0.5-2.0% halothane-oxygen mixture given through a semi-closed circle system. Perioperative antibiotics consisted of intravenous gentamicin (3 mg/kg) on the day of surgery and daily intramuscular gentamicin (3 mg/kg) for seven days following surgery.\nIn each animal, an 8 French urinary catheter was passed per urethra into the bladder, and the bladder was filled with normal saline. A diagnostic Aloka Echo SSD650 ultrasound machine with a UST 664 5/7.5 MHZ biplanar linear array transrectal probe (Wallingford, Conn.) was used to determine the maximal axial (transverse) width, height, and midline sagittal (longitudinal) length. The length was measured in the midline from the distal most aspect of the apex to the cephalad most portion of the gland. The volume was then determined using the following formula: length×width×½ height. A lower abdominal midline incision was created, and the peritoneal cavity was entered. The bladder and prostate were exposed and the periprostatic fat was carefully dissected off of the base of the gland. Using TRUS imaging of the prostate as well as direct visualization through the peritoneotomy a three inch 20 gauge spinal needle connected to a standard 10-cc luer-lock syringe containing the appropriate aliquot for injection was guided into the base of the right lobe of the prostate. The needle tip was localized within the prostatic parenchyma with ultrasound guidance and appropriately positioned.\nAnimals were randomly divided into subgroups. Animals A1 and A2 received a volume of dehydrated ethanol equal to 100% of the measured prostate volume while the remaining animals received a volume of 98% dehydrated ethanol equal to 50% of the total gland volume as determined by TRUS imaging. The animals received escalating doses of Carmustine dissolved in dehydrated ethanol: A1 and A2 2 mg/ml; B1 and B2, 5 mg/ml; C1 and C2 12.5 mg/ml; D1 and D2 18 mg/ml; and E1 and E2, 25 mg/ml. All animal subgroups were injected on separate days under general anesthesia through a midline peritoneotomy approach using TRUS guidance for needle placement. The needle was initially positioned at the ventral aspect of the apex of the gland and then withdrawn from apex to base during the injection. The needle was then repositioned toward the dorsal aspect of the gland at the apex and withdrawn toward the base during the injection so that as much of the parenchyma could be covered as possible.\nFourteen days following injection all animals underwent repeat TRUS imaging of the prostate gland under general anesthesia and were then euthanized by exsanguination under deep general anesthesia. The bladders and prostates were excised enbloc and fixed in formalin. If there was any evidence of perirectal inflammation or suspicion of pathology a section of the rectum was removed for pathologic examination. After adequate tissue fixation in formalin, the prostate glands were step sectioned and the volume of the prostate parenchyma affected (cm3) was calculated and quantitated based on the measured length, height and thickness of individual step sections of the gland. The volumes were then added together resulting in a quantification of the total parenchymal volume affected on a prostate gland for prostate gland basis. The tissue was then submitted for histopathologic interpretation."}, "[1]": {"conditions": "Group VI: carmustine 3.3 mg/ml in absolute ethanol, 100% tumor volume"}, "[2]": {"conditions": "all animals, 14 days after injection"}, "[3]": {"conditions": "carmustine 5 mg/ml ethanol, 50% of prostate volume, prostate volume 8.42, 14 days"}, "[4]": {"conditions": "carmustine 5 mg/ml ethanol, 50% of prostate volume, prostate volume 9.8, 14 days"}, "[5]": {"conditions": "carmustine 12.5 mg/ml ethanol, 50% of prostate volume, prostate volume 4.36, 14 days"}, "[6]": {"conditions": "carmustine 12.5 mg/ml ethanol, 50% of prostate volume, prostate volume 20.16, 14 days"}, "[7]": {"conditions": "carmustine 18 mg/ml ethanol, 50% of prostate volume, prostate volume 27.75, 14 days"}, "[8]": {"conditions": "carmustine 18 mg/ml ethanol, 50% of prostate volume, prostate volume 37.2, 14 days"}, "[9]": {"conditions": "carmustine 25 mg/ml ethanol, 50% of prostate volume, prostate volume 22.14, 14 days"}}, "note": "Like-named read-outs stand apart in the source and are kept apart here. Marks after values point to notes of the source that are not given here."}
{"smiles": "O=NN(CCCl)C(=O)NCCCl", "note": "[Carmustine, carmustine]", "values": [{"measurement": "selective effect on tumor cells", "setting": "Walker 256 tumors; 100% ethanol and 3.3 mg/ml carmustine", "value": "selectively kill tumor cells"}, {"measurement": "Complete Regressors/Total", "setting": "Walker 256 tumors; [1]", "value": "4/5"}, {"measurement": "local findings in the area of the tumor", "setting": "Walker 256 tumors; [1]", "value": "no evidence of scar, hair loss or residual redness"}, {"measurement": "Mean Days to Tumor Size 5000 mm^3 after treatment", "setting": "Walker 256 tumors; Group VI: carmustine 3.3 mg/ml in absolute ethanol, 100% tumor volume, 2 animals", "value": 29.5, "unit": "days"}, {"measurement": "Tumor Free at Time of Death", "setting": "Walker 256 tumors; [1]", "value": 3}, {"measurement": "Tumor Free at Time of Death", "setting": "Walker 256 tumors; Group VI: carmustine 3.3 mg/ml in absolute ethanol, 100% tumor volume, listed as carmustine", "value": "three"}, {"measurement": "relation of carmustine concentration to volume of tissue affected", "setting": "normal canine prostate; 2-25 mg/ml carmustine in dehydrated ethanol, 14 days", "value": "highest concentrations of carmustine were associated with the largest volumes of tissue affected"}, {"measurement": "rectal injuries", "setting": "normal canine prostate; all animals", "value": "no rectal injuries"}, {"measurement": "findings in prostatic parenchyma (TRUS and step sections)", "setting": "normal canine prostate; [2]", "value": "hemorrhagic and coagulative necrosis"}, {"measurement": "findings in the urethra", "setting": "normal canine prostate; [2]", "value": "submucosal hemorrhage, mucosal erosion and inflammation"}, {"measurement": "Periprostatic Tissue Involvement", "setting": "normal canine prostate; carmustine 5 mg/ml ethanol, 50% of prostate volume, prostate volume 8.42", "value": "Marked fat necrosis"}, {"measurement": "Volume Affected Left", "setting": "normal canine prostate; [3]", "value": 0.68, "unit": "cc^3"}, {"measurement": "Volume Affected PU (periurethral)", "setting": "normal canine prostate; [3]", "value": 0, "unit": "cc^3"}, {"measurement": "Volume Affected Right", "setting": "normal canine prostate; [3]", "value": 1.73, "unit": "cc^3"}, {"measurement": "Periprostatic Tissue Involvement", "setting": "normal canine prostate; carmustine 5 mg/ml ethanol, 50% of prostate volume, prostate volume 9.8", "value": "Cystic necrosis R"}, {"measurement": "Volume Affected Left", "setting": "normal canine prostate; [4]", "value": 1.61, "unit": "cc^3"}, {"measurement": "Volume Affected PU (periurethral)", "setting": "normal canine prostate; [4]", "value": 2.51, "unit": "cc^3"}, {"measurement": "Volume Affected Right", "setting": "normal canine prostate; [4]", "value": 0.85, "unit": "cc^3"}, {"measurement": "Periprostatic Tissue Involvement", "setting": "normal canine prostate; carmustine 12.5 mg/ml ethanol, 50% of prostate volume, prostate volume 4.36", "value": "Moderate fat necrosis"}, {"measurement": "Volume Affected PU (periurethral)", "setting": "normal canine prostate; [5]", "value": 0.62, "unit": "cc^3"}, {"measurement": "Volume Affected left + right", "setting": "normal canine prostate; [5]", "value": 1.8, "unit": "cc^3"}, {"measurement": "Periprostatic Tissue Involvement", "setting": "normal canine prostate; carmustine 12.5 mg/ml ethanol, 50% of prostate volume, prostate volume 20.16", "value": "Minimal fat necrosis"}, {"measurement": "Volume Affected Left", "setting": "normal canine prostate; [6]", "value": 1.8, "unit": "cc^3"}, {"measurement": "Volume Affected PU (periurethral)", "setting": "normal canine prostate; [6]", "value": 0, "unit": "cc^3"}, {"measurement": "Volume Affected Right", "setting": "normal canine prostate; [6]", "value": 1.4, "unit": "cc^3"}, {"measurement": "Periprostatic Tissue Involvement", "setting": "normal canine prostate; carmustine 18 mg/ml ethanol, 50% of prostate volume, prostate volume 27.75", "value": "Marked fat necrosis"}, {"measurement": "Volume Affected Left", "setting": "normal canine prostate; [7]", "value": 8.35, "unit": "cc^3"}, {"measurement": "Volume Affected PU (periurethral)", "setting": "normal canine prostate; [7]", "value": 1.2, "unit": "cc^3"}, {"measurement": "Volume Affected Right", "setting": "normal canine prostate; [7]", "value": 12.31, "unit": "cc^3"}, {"measurement": "Periprostatic Tissue Involvement", "setting": "normal canine prostate; carmustine 18 mg/ml ethanol, 50% of prostate volume, prostate volume 37.2", "value": "Marked fat necrosis"}, {"measurement": "Volume Affected Left", "setting": "normal canine prostate; [8]", "value": 11.76, "unit": "cc^3"}, {"measurement": "Volume Affected PU (periurethral)", "setting": "normal canine prostate; [8]", "value": 3.84, "unit": "cc^3"}, {"measurement": "Volume Affected Right", "setting": "normal canine prostate; [8]", "value": 9.73, "unit": "cc^3"}, {"measurement": "Periprostatic Tissue Involvement", "setting": "normal canine prostate; carmustine 25 mg/ml ethanol, 50% of prostate volume, prostate volume 22.14", "value": "Mild fat necrosis"}, {"measurement": "Volume Affected Left", "setting": "normal canine prostate; [9]", "value": 7.5, "unit": "cc^3"}, {"measurement": "Volume Affected PU (periurethral)", "setting": "normal canine prostate; [9]", "value": 0, "unit": "cc^3"}, {"measurement": "Volume Affected Right", "setting": "normal canine prostate; [9]", "value": 4.8, "unit": "cc^3"}, {"measurement": "Periprostatic Tissue Involvement", "setting": "normal canine prostate; carmustine 25 mg/ml ethanol, 50% of prostate volume, prostate volume 32.64", "value": "Large pelvic abscess"}, {"measurement": "Volume Affected left + right + periurethral", "setting": "normal canine prostate; carmustine 25 mg/ml ethanol, 50% of prostate volume, prostate volume 32.64, 14 days", "value": "32.64** cc^3"}]}
